Results as given in publication PMC6934184, “Selective DNA-PKcs inhibition extends the therapeutic index of localized radiotherapy and chemotherapy” (The Journal of Clinical Investigation, 2019).

Target: T1, CLK3 (Homo sapiens, UniProt P49761)
T1 construct: purchased Thermo Fisher Scientific (Life Technologies) SelectScreen
Assay: SelectScreen Z'LYTE
Type: biochemical
How it was run: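 Compound tested in SelectScreen activity assays, Z'LYTE for CSF1R, CDK1/cyclin B and MAP2K6 and Adapta for CAMK1. ATP for CAMK1 was listed as 10, and Km app was used for CSF1R. Results are expressed in percent.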

T1 sequence (P49761 whole entry): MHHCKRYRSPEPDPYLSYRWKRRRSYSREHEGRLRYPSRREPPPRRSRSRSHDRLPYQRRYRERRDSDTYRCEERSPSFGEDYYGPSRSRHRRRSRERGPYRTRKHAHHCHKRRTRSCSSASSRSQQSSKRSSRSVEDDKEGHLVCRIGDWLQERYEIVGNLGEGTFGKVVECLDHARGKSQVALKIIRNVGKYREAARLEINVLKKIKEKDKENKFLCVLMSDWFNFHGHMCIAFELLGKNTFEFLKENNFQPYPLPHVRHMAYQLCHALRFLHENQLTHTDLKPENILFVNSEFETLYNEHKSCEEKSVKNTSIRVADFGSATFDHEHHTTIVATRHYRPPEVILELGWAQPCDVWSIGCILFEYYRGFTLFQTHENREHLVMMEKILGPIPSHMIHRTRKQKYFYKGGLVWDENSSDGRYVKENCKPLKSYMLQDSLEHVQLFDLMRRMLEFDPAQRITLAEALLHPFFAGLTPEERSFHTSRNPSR

CN(C(=O)CN1CCOCC1)c1ccc2sc3c(-c4cccc5c(=O)cc(N6CC7CCC(C6)O7)oc45)cccc3c2c1 [NU5455]
inhibition at 1 µM: -0.5%
